ChEMBL document CHEMBL1128770, “Amino azoles and azolo-azines as potential hepatoprotectants: Part III” (1995)

Key:
Type in all cases: functional
[1] = system: Rattus norvegicus; test: Hepatoprotective activity against thioacetamide (200 mg/kg, sc) induced toxicity in rat at 6 mg/kg dose (po x 7 days), expressed as %protection afforded in various levels of bilirubin
[2] = system: Rattus norvegicus; test: Hepatoprotective activity against thioacetamide(200 mg/kg, sc) induced toxicity in rat at 6 mg/kg dose(po x 7 days), expressed as %protection afforded in various levels of glutamate pyruvate transaminase (GPT)
[3] = system: Rattus norvegicus; test: Hepatoprotective activity against thioacetamide(200 mg/kg, sc) induced toxicity in rat at 6 mg/kg dose(po x 7 days), expressed as %protection afforded in various levels of glutamate oxaloacetate transaminase (GOT)
[4] = system: Rattus norvegicus; test: Hepatoprotective activity against thioacetamide (200 mg/kg, sc) induced toxicity in rat at 6 mg/kg dose (po x 7 days), expressed as %protection afforded in various levels of alkaline phosphatase (ALP)

| Compound | Bilurubin Level [1] [mg %] | GPT Level [2] [U l-1] | GOT Level [3] [U l-1] | ALP Level [4] [U l-1] |
| --- | --- | --- | --- | --- |
| COc1ccc(Cc2c(N)noc2N)cc1 | 0.745 | 87.4 | 99.9 | 215.9 |
| CN(C)c1ccc(Cc2c(N)noc2N)cc1 | 0.786 | 146.2 | 114 | 206.6 |
| CC(=O)Nc1[nH]nc(N)c1Cc1ccc(Cl)cc1 | 0.693 | 146 | 96.7 | 204 |
| SILYMARIN | 0.617 | 110 | 84.5 | 199 |
| COc1ccc(Cc2c(N)n[nH]c2N)cc1 | 0.619 | 85.5 | 70.4 | 187 |
| Nc1noc(N)c1Cc1ccc(Cl)cc1 | 0.735 | 112.5 | 106 | 201 |
| Nc1noc(N)c1Cc1ccc2c(c1)OCO2 | 0.69 | 109.3 | 101.5 | 205.8 |
| Nc1n[nH]c(N)c1Cc1ccc2c(c1)OCO2 | 0.758 | 99.2 | 75.6 | 196.9 |
| Cc1ccc(-c2cc(Cc3nnc(N)s3)n(-c3ccccc3)n2)cc1 | 0.575 | 87.5 | 65.2 | 196 |
| Nc1nc(N)nc(Cc2cc(-c3ccc(F)cc3)[nH]n2)n1 | 0.807 | 129 | 121.6 | 203.2 |
| Nc1nc(N)nc(Cc2cc(-c3ccc(Cl)cc3)[nH]n2)n1 | 0.748 | 148.5 | 119 | 190.5 |
| CC(=N)S [THIOACETAMIDE] | 0.829 | 171.5 | 128 | 218.9 |
| CN(C)c1ccc(Cc2c(N)n[nH]c2N)cc1 | 0.568 | 93.8 | 67.1 | 187.1 |
| Nc1n[nH]c(N)c1Cc1ccc(Cl)cc1 | 0.757 | 136.2 | 97.5 | 205.3 |
